Experiment [1] is described as follows: Sensory evaluation in Japanese noodle soup base solution with potassium chloride (0.1 g) (Experimental Example 4). As to conditions: for off-taste suppressing effect: Japanese noodle soup base solution, potassium chloride 0.1 g; for intensity of off-tastes (bitter taste, metallic taste, harsh taste, astringent taste) derived from potassium chloride: base solution of Table 18. The protocol: Potassium chloride (0.1 g) was added to a commercially available Japanese noodle soup base (manufactured by Yamaki Co., Ltd.) (11.1 g), and dissolved by adding hot water ([…]) to prepare a base solution.
Each compound shown in the following Table 18 was added to the base solution prepared above so as to achieve the concentration (addition concentration) shown in the following Table 18 to prepare each evaluation sample.
Based on the following evaluation criteria, a panel of two experts determined by consensus the intensity of off-tastes (bitter taste, metallic taste, harsh taste, astringent taste) derived from potassium chloride in each evaluation sample, by reference to each potassium chloride aqueous solution adjusted to 0.1 wt % or 0.05 wt %.

A short description of experiment [2]: Sensory evaluation in ramen noodle soup solution with potassium chloride (Experimental Example 3). As to conditions: for off-taste suppressing effect: Ramen noodle soup solution with 0.8 wt % potassium chloride; for intensity of off-tastes (bitter taste, metallic taste, harsh taste, astringent taste) derived from potassium chloride: base solutions of Tables 15 to 17 (ramen noodle soup, chicken broth, potage). The protocol: (§1) As shown in the following (1) to (3) below, 0.8 wt % of potassium chloride was added to a food base powder corresponding to 0.5 wt % of sodium chloride to prepare each base solution having an off-taste derived from potassium chloride.
Potassium chloride (0.8 g) was added to a soup powder (1.1 g) of a commercially available instant ramen noodle (manufactured by SANYO FOODS Co., Ltd., trade name “Sapporo Ichiban Shouyuaji”), hot water (98.1 g) was added to dissolve the mixture to prepare a base solution (ramen noodle soup solution).
(§2) Each compound shown in the following Tables 15 to 17 was added to each base solution (ramen noodle soup solution, chicken broth solution, potage solution) so as to achieve the concentration (addition concentration) shown in the following Tables 15 to 17 to prepare each evaluation sample.
(§3) By a method similar to that in Experimental Example 1, a panel of two experts determined the intensity of off-tastes (bitter taste, metallic taste, harsh taste, astringent taste) derived from potassium chloride in each evaluation sample.

A short description of experiment [3]: Sensory evaluation in potage solution with potassium chloride (Experimental Example 3). As to conditions: Potage solution with 0.8 wt % potassium chloride. How it is done: as §1
Potassium chloride (0.8 g) was added to a commercially available powdered instant potage (manufactured by Ajinomoto Co., Inc., trade name “Knorr (registered trade mark) Cup Soup Potage”) (7.1 g), hot water (92.1 g) was added to dissolve the mixture to prepare a base solution (potage solution).
as §2, §3

Experiment [4] can be described thus: Sensory evaluation in BCAA sweetness aqueous solution (Experimental Example 6). As to conditions: for intensity of off-tastes (bitter taste, harsh taste) derived from amino acid (branched chain amino acid): summary of Table 20. Further details: key to off-taste suppressing effect: ±: no change from negative control; −: slightly suppressed compared to negative control; −−: suppressed compared to negative control (same level of intensity as BCAA sweetness aqueous solution in which total concentration of leucine, isoleucine, and valine (weight ratio=2:1:1) exceeds 0.8 wt % and is not more than 0.9 wt %); −−−: considerably suppressed compared to negative control (same level of intensity as BCAA sweetness aqueous solution in which total concentration of leucine, isoleucine, and valine (weight ratio=2:1:1) is not more than 0.8 wt %). How it is done:
Each compound shown in the following Table 20 was added to an aqueous solution prepared by dissolving leucine (0.50 parts by weight), isoleucine (0.25 parts by weight), valine (0.25 parts by weight), and granulated sugar (4 parts by weight) in ion exchange water (95 parts by weight) (hereinafter at times referred to as BCAA sweetness aqueous solution) so as to achieve the concentration (addition concentration) shown in the following Table 20 to prepare each evaluation sample.
Based on the following evaluation criteria, a panel of four experts determined by consensus the intensity of off-tastes (bitter taste, harsh taste) derived from amino acid in each evaluation sample, by comparison with a BCAA sweetness aqueous solution without addition of any compound (negative control).

Setting [5] is: addition concentration 1000 weight ppb (1000 weight ppm with respect to potassium chloride).
The mark [6] stands for this setting: addition concentration 2000 weight ppb (2000 weight ppm with respect to potassium chloride).
The mark [7] stands for this setting: addition concentration 100 ppb (12.5 weight ppm with respect to potassium chloride).
Setting [8] is: addition concentration 10 weight ppb (1 weight ppm with respect to amino acid).
The mark [9] stands for this setting: addition concentration 50 weight ppb (5 weight ppm with respect to amino acid).
Where [10] appears, read: addition concentration 100 weight ppb (10 weight ppm with respect to amino acid).
Where [11] appears, read: addition concentration 10 ppb (1.25 weight ppm with respect to potassium chloride).
The mark [12] stands for this setting: addition concentration 1 weight ppb (0.1 weight ppm with respect to amino acid).
Setting [13] is: addition concentration 1 ppm (125 weight ppm with respect to potassium chloride).

Each structure is given as a SMILES string.

For the molecule `CC(=O)c1ccc(C)o1` [2-acetyl-5-methylfuran], the off-taste suppressing effect result is “+ (intensity of the same level as potassium chloride aqueous solution with potassium chloride concentration of not less than 0.05 wt % and less than 0.1 wt %)” in experiment [1] (setting [5]); “++ (intensity of the same level as potassium chloride aqueous solution with potassium chloride concentration of less than 0.05 wt %)” in experiment [1] (setting [6]). For the same molecule, the “intensity of off-tastes (bitter taste, metallic taste, harsh taste, astringent taste) derived from potassium chloride” value (“intensity … from potassium chloride” below) in experiment [1] is “decreased”.
Turning to `CC(=O)c1ccco1` [2-acetylfuran], the off-taste suppressing effect result in experiment [2] (setting [7]) was “+++ (intensity of the same level as potassium chloride aqueous solution with potassium chloride concentration of not less than 0.65 wt % and less than 0.7 wt %)”; in experiment [3] (setting [7]), “++ (intensity of the same level as potassium chloride aqueous solution with potassium chloride concentration of not less than 0.7 wt % and less than 0.75 wt %)”; in experiment [4] (setting [8]), “−”; in experiment [4] (setting [9]), “−− (suppressed compared to negative control (same level of intensity as BCAA sweetness aqueous solution in which total concentration of leucine, isoleucine, and valine (weight ratio=2:1:1) exceeds 0.8 wt % and is not more than 0.9 wt %))”; in experiment [4] (setting [10]) it was “−− (suppressed compared to negative control (same level of intensity as BCAA sweetness aqueous solution in which total concentration of leucine, isoleucine, and valine (weight ratio=2:1:1) exceeds 0.8 wt % and is not more than 0.9 wt %))”; in experiment [4] (addition concentration 200 weight ppb (20 weight ppm with respect to amino acid)) it was “−− (suppressed compared to negative control (same level of intensity as BCAA sweetness aqueous solution in which total concentration of leucine, isoleucine, and valine (weight ratio=2:1:1) exceeds 0.8 wt % and is not more than 0.9 wt %))”. The “intensity … from potassium chloride” value in experiment [2] was “decreased”. In experiment [4], the “intensity of off-tastes (bitter taste, harsh taste) derived from amino acid (branched chain amino acid)” value (“intensity … (branched chain amino acid)” for short) is “suppressed”.
On to `CC1=C(O)C(=O)CC1` [cyclotene], for which the off-taste suppressing effect entry in experiment [2] (setting [11]) is “+++ (intensity of the same level as potassium chloride aqueous solution with potassium chloride concentration of not less than 0.65 wt % and less than 0.7 wt %)”; in experiment [3] (setting [11]), “+++ (intensity of the same level as potassium chloride aqueous solution with potassium chloride concentration of not less than 0.65 wt % and less than 0.7 wt %)”; in experiment [4] (setting [12]), “−− (suppressed compared to negative control (same level of intensity as BCAA sweetness aqueous solution in which total concentration of leucine, isoleucine, and valine (weight ratio=2:1:1) exceeds 0.8 wt % and is not more than 0.9 wt %))”; in experiment [4] (setting [8]) it was “−− (suppressed compared to negative control (same level of intensity as BCAA sweetness aqueous solution in which total concentration of leucine, isoleucine, and valine (weight ratio=2:1:1) exceeds 0.8 wt % and is not more than 0.9 wt %))”; in experiment [4] (setting [9]) it was “−− (suppressed compared to negative control (same level of intensity as BCAA sweetness aqueous solution in which total concentration of leucine, isoleucine, and valine (weight ratio=2:1:1) exceeds 0.8 wt % and is not more than 0.9 wt %))”; in experiment [4] (setting [10]) it was “−− (suppressed compared to negative control (same level of intensity as BCAA sweetness aqueous solution in which total concentration of leucine, isoleucine, and valine (weight ratio=2:1:1) exceeds 0.8 wt % and is not more than 0.9 wt %))”. Moreover, in experiment [2], the “intensity … from potassium chloride” value is “decreased”. Besides, the “intensity … (branched chain amino acid)” value in experiment [4] is recorded as “suppressed”.
As for `O=Cc1ccco1` [furfural, Furfural], the off-taste suppressing effect result in experiment [2] (setting [11]) was “++ (intensity of the same level as potassium chloride aqueous solution with potassium chloride concentration of not less than 0.7 wt % and less than 0.75 wt %)”; in experiment [3] (setting [11]), “++ (intensity of the same level as potassium chloride aqueous solution with potassium chloride concentration of not less than 0.7 wt % and less than 0.75 wt %)”; in experiment [4] (setting [12]), “−”; in experiment [4] (setting [8]), “−− (suppressed compared to negative control (same level of intensity as BCAA sweetness aqueous solution in which total concentration of leucine, isoleucine, and valine (weight ratio=2:1:1) exceeds 0.8 wt % and is not more than 0.9 wt %))”; in experiment [4] (setting [9]), “−− (suppressed compared to negative control (same level of intensity as BCAA sweetness aqueous solution in which total concentration of leucine, isoleucine, and valine (weight ratio=2:1:1) exceeds 0.8 wt % and is not more than 0.9 wt %))”; in experiment [4] (setting [10]), “−− (suppressed compared to negative control (same level of intensity as BCAA sweetness aqueous solution in which total concentration of leucine, isoleucine, and valine (weight ratio=2:1:1) exceeds 0.8 wt % and is not more than 0.9 wt %))”. The “intensity … from potassium chloride” value in experiment [2] was “decreased”. Besides, in experiment [4], the “intensity … (branched chain amino acid)” value was “suppressed”.
`CCC(=O)O` [propionic acid]: the off-taste suppressing effect result in experiment [2] (setting [13]) was “++ (intensity of the same level as potassium chloride aqueous solution with potassium chloride concentration of not less than 0.7 wt % and less than 0.75 wt %)”; in experiment [3] (setting [13]), “++ (intensity of the same level as potassium chloride aqueous solution with potassium chloride concentration of not less than 0.7 wt % and less than 0.75 wt %)”; in experiment [1] (setting [5]), “+ (intensity of the same level as potassium chloride aqueous solution with potassium chloride concentration of not less than 0.05 wt % and less than 0.1 wt %)”; in experiment [1] (setting [6]), “++ (intensity of the same level as potassium chloride aqueous solution with potassium chloride concentration of less than 0.05 wt %)”; in experiment [4] (setting [10]) it was “−”; in experiment [4] (addition concentration 500 weight ppb (50 weight ppm with respect to amino acid)), “−− (suppressed compared to negative control (same level of intensity as BCAA sweetness aqueous solution in which total concentration of leucine, isoleucine, and valine (weight ratio=2:1:1) exceeds 0.8 wt % and is not more than 0.9 wt %))”. The off-taste suppressing effect entry in experiment [4] (addition concentration 1000 weight ppb (100 weight ppm with respect to amino acid)) was “−− (suppressed compared to negative control (same level of intensity as BCAA sweetness aqueous solution in which total concentration of leucine, isoleucine, and valine (weight ratio=2:1:1) exceeds 0.8 wt % and is not more than 0.9 wt %))”; in experiment [4] (addition concentration 2000 weight ppb (200 weight ppm with respect to amino acid)), “−− (suppressed compared to negative control (same level of intensity as BCAA sweetness aqueous solution in which total concentration of leucine, isoleucine, and valine (weight ratio=2:1:1) exceeds 0.8 wt % and is not more than 0.9 wt %))”. Also, the “intensity … from potassium chloride” value in experiment [2] and in experiment [1] was “decreased” each time. In addition, the “intensity … (branched chain amino acid)” value in experiment [4] was “suppressed”.

Values taken from patent US20220279826A1, “OFF-FLAVOR SUPPRESSING AGENT” (AJINOMOTO CO., INC., priority 2019, published 2022).
